According to US4906663A, “6-fluoroprostaglandins” (Asahi Glass Company, Ltd., priority 1987, dated 1990):
Converted amounts (≈) assume the structure as drawn. Like-named read-outs stand apart in the source and are kept apart here.

Assays:
platelet aggregation [1] = assay: In vitro inhibition of ADP (1 μM)-induced platelet aggregation (turbidimetric method of Born, platelet-rich plasma); type: cell-based, guinea-pigs of Hartley strain; settings: guinea-pig PRP, preincubated 37° C. for 10 minutes; for IC50: Cavia porcellus, Platelet
Description: (§1) Platelet aggregation study was carried out by a tarbidimetric method of Born (G. V. R. Born; Nature, 194, 927, 1962) using an aggregometer. Citrated blood obtained from guinea-pigs of Hartley strain was centrifuged at 120 g for 10 minutes and the supernatant, Platelet-rich plasma (PRP), was separated. In in vitro experiments, PRP was preincubated with test compounds at 37° C. for 10 minutes and then aggregation was induced by adding ADP (1 μM). Extent of aggregation was estimated with maximum changes of light transmittance within 5 minutes after adding ADP. Inhibitory potencies of compounds were expressed with the concentration showing 50% inhibition of platelet aggregation (IC50). In ex vivo experiments, compounds were orally given to guinea-pigs. Blood was taken 5 hours after the administration of compounds, and platelet aggregation study was performed as described in in vitro experiments. Potencies of compnds was expressed with minimum dose showing significant inhibition (MED).

platelet aggregation [2] = assay: Ex vivo inhibition of ADP-induced platelet aggregation 5 hours after oral administration; type: in vivo; settings: Cavia porcellus, blood taken 5 hours after administration, guinea-pigs, read-out: Ex vivo MED (minimum dose showing significant inhibition of platelet aggregation)
Description: as §1

[3] = system: gastric ulcer (HCl-ethanol induced); assay: Inhibitory effect on gastric ulcer induced by HCl-ethanol (lesion index); type: in vivo, rats (male, Wister strain); settings: Rattus norvegicus; oral, 30 minutes before 0.4N HCl-50% ethanol (1 ml); over night-fasted rats; read-out: ED50 (dose required for 50% inhibition of lesion index)
Description: Gastric ulcer was induced by an oral administration of 0.4N HCl-50% ethanol (1 ml) to over night-fasted rats (male, Wister strain). One hour after HCl-ethanol administration, rats were sacrificed and their stomachs were isolated. Isolated stomachs were inflated with saline and fixed with 5% formalin. After fixation, the stomach was cut open along greater curvature and maximum length of each lesion was measured. The sum of lesion length was defined as the lesion index. Compounds were given orally 30 minutes before administration of HCl-ethanol. Potencies of compounds were expressed with ED50, the dose required for 50% inhibition of lesion index.

[4] = system: depression in amplitude of ST-segment on ECG (vasopressin); assay: Antianginal effect: vasopressin-induced depression in amplitude of ST-segment on ECG; type: in vivo, male rats of Donryu strain; settings: Rattus norvegicus, anesthetized rats
Description: Antianginal effect of compounds was evaluated in male rats of Donryu strain according to Hatano et al. (N. Hatano et al.; Pharmacometrics, 19, 311, 1980) Vasopressin (0.2 IU/kg) was injected into femoral vein of anesthetized rats, and the depression in amplitude of ST-segment on ECG was measured at 30 second-intervals for 5 minutes after the vasopressin injection. Test compounds were intravenously injected 2 minutes before or orally given 30 minutes before the vasopressin injection. Data were analysed with two dimension analysis between the control and treated groups, and potencies of the compounds were expressed by MED.

[5] = iv, I.V., 2 minutes before vasopressin 0.2 IU/kg, read-out: I.V. MED (antianginal effect)
[6] = po, P.O., 30 minutes before vasopressin 0.2 IU/kg, read-out: P.O. MED (antianginal effect)

SMILES	IC50 (platelet aggregation [1]) [µg/mL]	In Vitro IC50 (platelet aggregation) (platelet aggregation [1]) [µg/mL]	minimal effective dose (platelet aggregation [2]) [µg/kg]	ED50 [3] [µg/kg]	minimal effective dose [4, 5] [µg/kg]	minimal effective dose [4, 6] [µg/kg]
CCCCC[C@H](O)/C=C/[C@H]1[C@H](O)CC(=O)[C@@H]1/C=C(/F)CCCCC(=O)O [APG - 2, (6E)-Δ^6-6-fluoro-PGE1]	0.52 (≈ 1.4 µM)					
CCCCCC(O)C=CC1C(O)CC(=O)C1CC(F)CCCCC(=O)O (single isomer, unassigned; ent-6) [APG - 23, 8-ent-6-fluoro-PGE1]		0.0145				
CCCCC[C@H](O)/C=C/[C@H]1[C@H](O)CC(=O)[C@@H]1C/C(F)=C\CCCC(=O)OC [APG - 7, 6-fluoro-PGE2 methyl ester]	0.655 (≈ 1.7 µM)					
CCCC[C@H](C)C[C@H](O)/C=C/[C@H]1[C@H](O)CC(=O)[C@@H]1C/C(F)=C\CCCC(=O)O [APG - 27, (17S)-17,20-dimethyl-6-fluoro-PGE2]	0.0427 (≈ 0.107 µM)			3.4		
CCCC[C@H](C)C[C@H](O)/C=C/[C@H]1[C@H](O)CC(=O)[C@@H]1CC(F)CCCCC(=O)O (stereo partly drawn) [APG - 24, (17S)-17,20-dimethyl-6-fluoro-PGE1]	0.0059 (≈ 0.0147 µM)		300		10	0.1

Now from value to compound, other results behind:

IC50 (platelet aggregation [1]) [µg/mL]	In Vitro IC50 (platelet aggregation) (platelet aggregation [1]) [µg/mL]	SMILES	minimal effective dose (platelet aggregation [2]) [µg/kg]	ED50 [3] [µg/kg]	minimal effective dose [4, 5] [µg/kg]	minimal effective dose [4, 6] [µg/kg]
0.1 (≈ 0.268 µM)		CCCCC[C@H](O)/C=C/[C@H]1[C@H](O)CC(=O)[C@@H]1CC(F)CCCCC(=O)O (stereo partly drawn) [APG - 21, 6-fluoro-PGE1]				
0.00105 (≈ 0.00263 µM)		CCCC[C@H](C)C[C@H](O)/C=C/[C@H]1[C@H](O)CC(=O)[C@H]1CC(F)CC/C=C/C(=O)O (stereo partly drawn) [APG - 30, (17S)-8-ent-Δ^2-17,20-dimethyl-6-fuoro-PGE1]	1000			
0.49 (≈ 1.32 µM)		CCCCC[C@H](O)/C=C/[C@H]1[C@H](O)CC(=O)[C@@H]1C/C(F)=C\CCCC(=O)O [APG - 5, 6-fluoro-PGE2]				
0.0127 (≈ 0.0317 µM)		CCCC[C@H](C)C[C@H](O)/C=C/[C@H]1[C@H](O)CC(=O)[C@H]1CC(F)CCCCC(=O)O (single isomer, unassigned; ent-17) [APG - 25]	3000		1	0.1
0.00233 (≈ 0.00585 µM)		CCCC[C@H](C)C[C@H](O)/C=C/[C@H]1[C@H](O)CC(=O)[C@@H]1CC(F)CC/C=C/C(=O)O (stereo partly drawn) [APG - 29, Δ^2-(17S)-17,20-dimethyl-6-fluoro-PGE1]	100	1.8		0.1
